Data on ten compounds can be found in ChEMBL document CHEMBL1201862, “PubChem BioAssay data set” (2004).

Test systems include EKVX; HOP-62; SK-OV-3; UACC-257; HOP-92; OVCAR-3; SF-268; LOX IMVI; HCC 2998; SNB-19; SF-539; CAKI-1; K562; COLO 205; MOLT-4; HCT-15; RXF 393; ACHN; SN12C; T47D.
Holding throughout (assay): growth of human tumour cells (NCI), 48 h

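Five concentrations, 48 hours, 96-well plates. At the GI50, growth is halved.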 The source made the active and inactive calls. No stated cut-off is given here; in the data, active = GI50 up to about 1.1 µM and inactive = higher. A value given as a limit tells only on which side of the number the result lay.

`CC1=C[C@@H](C)C[C@]2(C)CC[C@H](O2)[C@]23CC[C@](C(=O)O)(C[C@H](O2)[C@@H]2O[C@@](C)(CC2=O)[C@@H](O)[C@H]2CC[C@@]4(CCC[C@@H](O4)[C@H](C)C(=O)O[C@H]4C[C@H]([C@]5(O)OCC[C@H](C)[C@@H]5O)O[C@H]4C=C1)O2)O3`: the GI50 was > 10 µM (inactive) in the test with EKVX; > 9.59 µM (inactive) in the test with HOP-62; > 10 µM (inactive) with SK-OV-3; > 10 µM (inactive) in the test with UACC-257; > 3.92 µM (inactive) in the test on HOP-92; > 10 µM (inactive) with OVCAR-3. Further, the GI50 in the test with SF-268 is > 10 µM (inactive); with LOX IMVI, > 6.92 µM (inactive); in the test with HCC 2998, > 10 µM (inactive); with SNB-19, > 10 µM (inactive); in the test with SF-539, > 5.82 µM (inactive); with CAKI-1, > 10 µM (inactive). Also, the GI50 in the test on K562 was > 10 µM (inactive); in the test with COLO 205, > 8.55 µM (inactive); in the test on MOLT-4 it was > 10 µM (inactive); in the test with HCT-15, greater than 10 µM; in the test on RXF 393, > 10 µM (inactive); in the test on ACHN it was > 10 µM (inactive). The GI50 in the test on SN12C is > 8.55 µM (inactive); with T47D, > 10 µM (inactive).
With `N=C1/C(=C/c2ccccc2)C(=O)N=C2SC=NN12`, the GI50 with EKVX, in the test with HOP-62, in the test on SK-OV-3, with UACC-257, in the test with HOP-92 and with OVCAR-3 was > 100 µM (inactive) each time. For the same compound, the GI50 in the test with SF-268 is > 100 µM (inactive); in the test with LOX IMVI, > 100 µM (inactive); with HCC 2998, > 100 µM (inactive); in the test with SNB-19 it was > 100 µM (inactive); in the test with SF-539, 29.7 µM (inactive); with CAKI-1, > 100 µM (inactive). Also, the GI50 in the test on K562 is > 100 µM (inactive); with COLO 205, > 100 µM (inactive); with MOLT-4, > 100 µM (inactive); with HCT-15, greater than 100 µM; with RXF 393 it was > 100 µM (inactive); with ACHN, > 100 µM (inactive). Also, the GI50 in the test with SN12C and with T47D was > 100 µM (inactive) each time.
Take `O=C(CNc1ccc2c(=S)c3ccccc3[nH]c2c1)Nc1ccccc1-c1ccccc1NC(=O)CNc1ccc2c(=S)c3ccccc3[nH]c2c1`: the GI50 in the test with EKVX was 24.4 µM (inactive); in the test on HOP-62, 24.3 µM (inactive); in the test with SK-OV-3 it was 26.3 µM (inactive); in the test with UACC-257, 21 µM (inactive); in the test on HOP-92 it was 23 µM (inactive); in the test with OVCAR-3 it was 24.8 µM (inactive). Moreover, the GI50 is 22 µM (inactive) in the test with SF-268; 19.9 µM (inactive) in the test with LOX IMVI; 15.1 µM (inactive) in the test with HCC 2998; 17.2 µM (inactive) with SNB-19; 24.7 µM (inactive) with SF-539; 30.1 µM (inactive) in the test on CAKI-1. Further, the GI50 in the test on K562 is 2.85 µM (inactive); in the test on COLO 205, 11.9 µM (inactive); with MOLT-4, 3.96 µM (inactive); with HCT-15, 19.4 µM; with RXF 393 it was 27 µM (inactive); in the test with ACHN it was 15.8 µM (inactive). Besides, the values for the GI50 in the test with SN12C and in the test with T47D were 22.2 µM (inactive) and 15.6 µM (inactive), respectively.
As to `CN(C)c1ccc(/C=C(\NC(=O)c2ccccc2)C(=O)Nc2ccccc2C(=O)NN2C(=O)CSC2c2ccc(N(C)C)cc2)cc1` (stereo not given), the GI50 in the test on EKVX is > 100 µM (inactive); with HOP-62, 93.1 µM (inactive); in the test on SK-OV-3, > 100 µM (inactive); in the test on UACC-257 it was 16.1 µM (inactive); with HOP-92, > 100 µM (inactive); in the test on OVCAR-3 it was > 100 µM (inactive). In addition, the GI50 was > 100 µM (inactive) in the test on SF-268; > 100 µM (inactive) with LOX IMVI; 6.37 µM (inactive) in the test with HCC 2998; > 100 µM (inactive) with SNB-19; 79.8 µM (inactive) with SF-539; > 100 µM (inactive) in the test on CAKI-1. The GI50 with K562 was 33.3 µM (inactive); in the test on COLO 205, > 100 µM (inactive); in the test with MOLT-4 it was > 100 µM (inactive); in the test on HCT-15, 92.7 µM; in the test on RXF 393 it was 86.3 µM (inactive); in the test with ACHN, > 100 µM (inactive). Besides, the GI50 in the test with SN12C and in the test with T47D was > 100 µM (inactive) throughout.
Turning to `COc1cc2oc(-c3ccc(O)cc3)c(OC3OC(C)C(O)C(O)C3O)c(=O)c2c(O)c1OC` (stereo not given), the GI50 with EKVX, with HOP-62, in the test with SK-OV-3, in the test with UACC-257, with HOP-92 and with OVCAR-3 was > 100 µM (inactive) in each case. Besides, the GI50 was > 100 µM (inactive) with SF-268; 57.7 µM (inactive) in the test on LOX IMVI; > 100 µM (inactive) with HCC 2998; > 100 µM (inactive) in the test on SNB-19; > 100 µM (inactive) in the test with SF-539; > 100 µM (inactive) in the test on CAKI-1. Further, the GI50 is 54.3 µM (inactive) in the test with K562; > 100 µM (inactive) in the test on COLO 205; 33 µM (inactive) in the test with MOLT-4; greater than 100 µM in the test on HCT-15; > 100 µM (inactive) in the test with RXF 393; 90.8 µM (inactive) with ACHN. Moreover, the GI50 in the test on SN12C and in the test with T47D was > 100 µM (inactive) each time.
With `Cc1cn(CCCCCOC(=O)NC(CCCNC(=N)N)C(=O)O)c(=O)[nH]c1=O` (stereo not given), the GI50 is 40.3 µM (inactive) with EKVX; > 100 µM (inactive) in the test with HOP-62; 48.9 µM (inactive) in the test on SK-OV-3; > 100 µM (inactive) in the test on UACC-257; > 100 µM (inactive) in the test with HOP-92; 50.9 µM (inactive) with OVCAR-3. Moreover, the GI50 in the test on SF-268 is > 100 µM (inactive); with LOX IMVI, 53.6 µM (inactive); in the test with HCC 2998, 35.7 µM (inactive); with SNB-19, 40.8 µM (inactive); in the test on SF-539, 45.7 µM (inactive); in the test with CAKI-1 it was 37.1 µM (inactive). Also, the GI50 with K562 is 16.1 µM (inactive); with COLO 205, 26.1 µM (inactive); in the test with MOLT-4 it was 35.6 µM (inactive); in the test on HCT-15 it was 28.1 µM; with RXF 393, 33.3 µM (inactive); in the test on ACHN it was 72.3 µM (inactive). In addition, the GI50 with SN12C is 56.8 µM (inactive); with T47D, > 100 µM (inactive).
With `COc1ccc(C(=O)Sc2c(-c3ccccc3)c(=O)n(-c3ccccc3)c(=S)n2-c2ccccc2)cc1`, the GI50 in the test on EKVX is > 100 µM (inactive); in the test on HOP-62, 34.5 µM (inactive); with SK-OV-3, > 100 µM (inactive); with UACC-257, > 100 µM (inactive); with HOP-92, 24.1 µM (inactive); with OVCAR-3, 30.5 µM (inactive). Besides, the GI50 with SF-268 was 67.5 µM (inactive); with LOX IMVI, 74.5 µM (inactive); with HCC 2998, > 100 µM (inactive); with SNB-19 it was 43.5 µM (inactive); in the test on SF-539, 14.2 µM (inactive); with CAKI-1, > 100 µM (inactive). Further, the GI50 in the test with K562 was 37.1 µM (inactive); in the test with COLO 205, 39.7 µM (inactive); with MOLT-4, 21.6 µM (inactive); in the test on HCT-15, greater than 100 µM; with RXF 393, 24.1 µM (inactive); in the test with ACHN it was 40.5 µM (inactive). Besides, the GI50 with SN12C was 41.7 µM (inactive); in the test with T47D, > 100 µM (inactive).
As for `COc1cc(C(N)=O)cc(NC(=O)/C=C/c2ccccc2)c1OC`, the GI50 in the test with EKVX was 89.7 µM (inactive); with HOP-62, > 100 µM (inactive); in the test on SK-OV-3, 49.4 µM (inactive); in the test with UACC-257, > 100 µM (inactive); with HOP-92, 35.7 µM (inactive); in the test on OVCAR-3 it was 97.5 µM (inactive). Besides, the GI50 with SF-268 was 64.3 µM (inactive); in the test with LOX IMVI, > 100 µM (inactive); in the test with HCC 2998, > 100 µM (inactive); with SNB-19 it was 27.7 µM (inactive); in the test with SF-539 it was 83 µM (inactive); in the test with CAKI-1, > 100 µM (inactive). The GI50 is > 100 µM (inactive) in the test on K562; > 100 µM (inactive) with COLO 205; > 100 µM (inactive) in the test on MOLT-4; greater than 100 µM with HCT-15; > 100 µM (inactive) in the test on RXF 393; > 100 µM (inactive) with ACHN. Besides, the GI50 was > 100 µM (inactive) in the test with SN12C and 71.1 µM (inactive) in the test with T47D.
For `COc1ccc2nc3ccc(OC)cc3c(SCCO)c2c1`, the GI50 is 31.7 µM (inactive) in the test with EKVX; > 58.9 µM (inactive) with HOP-62; 54.5 µM (inactive) in the test with SK-OV-3; 32.7 µM (inactive) in the test on UACC-257; > 67.5 µM (inactive) in the test on HOP-92; 36 µM (inactive) in the test with OVCAR-3. Further, the GI50 was 25.2 µM (inactive) with SF-268; 8.43 µM (inactive) in the test on LOX IMVI; > 75 µM (inactive) in the test with HCC 2998; > 59.7 µM (inactive) in the test with SNB-19; 20.7 µM (inactive) in the test with SF-539; 13.4 µM (inactive) with CAKI-1. Further, the GI50 in the test on K562 is 9.91 µM (inactive); in the test with COLO 205, 23.6 µM (inactive); in the test on MOLT-4 it was 3.03 µM (inactive); with HCT-15 it was 27.4 µM; in the test with RXF 393, 12.6 µM (inactive); in the test with ACHN, 23.7 µM (inactive). In addition, the figures for the GI50 with SN12C and in the test with T47D were 26.4 µM (inactive) and 15.8 µM (inactive), respectively.
As to `O=C(Nc1ccccc1C(=O)NCc1ccccc1)/C(=C/c1ccccc1O)NC(=O)c1ccccc1`, the GI50 with EKVX was > 100 µM (inactive); in the test with HOP-62 it was 27.1 µM (inactive); in the test on SK-OV-3, 48.9 µM (inactive); in the test with UACC-257, > 100 µM (inactive); with HOP-92 it was 75.3 µM (inactive); in the test with OVCAR-3 it was > 100 µM (inactive). Moreover, the GI50 was 54.1 µM (inactive) in the test on SF-268; 98.2 µM (inactive) in the test with LOX IMVI; > 100 µM (inactive) in the test on HCC 2998; > 100 µM (inactive) in the test with SNB-19; > 100 µM (inactive) with SF-539; > 100 µM (inactive) in the test with CAKI-1. The GI50 in the test on K562 was > 100 µM (inactive); with COLO 205, > 100 µM (inactive); with MOLT-4, > 100 µM (inactive); in the test with HCT-15 it was 24.7 µM; in the test with RXF 393, 48.9 µM (inactive); with ACHN, 61 µM (inactive). In addition, the GI50 in the test on SN12C was > 100 µM (inactive); with T47D it was 19.5 µM (inactive).
